Measurements taken from patent US20190083521A1, “COMBINATION THERAPY FOR TREATING CANCER” (Epizyme, Inc., priority 2014, published 2019).

What was measured:
MOLM-13 (MLL-AF9) cells [1] = assay: Example 7 primary screen: 300 nM EPZ-5676 pre-treatment, second compound 72 h, ATPLite, GI100 shift; format: cell-based, human; conditions: MOLM-13 (MLL-AF9); 300 nM EPZ-5676 pre-treatment vs DMSO
Protocol: (§1) Cells were split using EPZ-5676 or DMSO containing growth media and further incubated for an additional 3-day pre-treatment time. Cells were finally seeded in growth media containing EPZ-5676 or DMSO in 384-well plates at 500 cell/well density. Cells were then equilibrated in incubators for 24 hours before treatment with a second compound. Treated assay plates were incubated with a second compound for 72 hours. After this time, plates were developed for endpoint analysis using ATPLite to measure ATP content, which is used as an indicator of cell viability.
(§2) “N/D” means the GI100 of the second compound could not be determined for both conditions and “-” means not tested.
(§3) Growth Inhibition (GI) as a measure of cell viability: The cell viability of vehicle was measured at the time of dosing the second agent (T0) and after seventy-two hours (T72). A GI reading of 0% represents no growth inhibition—cells treated with test compound as compared to T72 vehicle signals were measured. […] A GI 200% represents complete death of all cells in the culture well. Compounds reaching an activity plateau of GI 200% are considered cytotoxic. GI is calculated by applying the following test and equation: […]

MOLM-13 (MLL-AF9) cells [2] = assay: Example 7 retest: EPZ-5676 pre-treatment, second compound 72 h, Cell Titer Glo, growth inhibition; format: cell-based, human; design: GI100: unit not given here; conditions: MOLM-13 (MLL-AF9); for Combination result with EPZ-5676, Retest: 150 nM EPZ-5676 pre-treatment vs DMSO; for GI50: Homo sapiens; for GI50 / GI100: second compound, 72 h
Protocol: (§4) Cells were then treated with a second compound for 72 hours. After this time, plates were developed for endpoint analysis using Cell Titer Glo to measure ATP content, which is used as an indicator of cell viability.
as §2
as §3, with “(T72).” for “(T72). A GI reading of 0% represents no growth inhibition—cells treated with test compound as compared to T72 vehicle signals were measured.”

MV4-11 (MLL-AF4) cells = assay: Combination proliferation assay with Compound A2 (CellTiter-Glo, Chou-Talalay CI); format: cell-based, human; conditions: MV4-11 (MLL-AF4); 7 Day Cotreatment Model
Protocol: (§5) The acute myelogenous leukemia cell lines MV4-11 (MLL-AF4) and MOLM-13 (MLL-AF9) were obtained from American Type Culture Collection (ATCC; Rockville, Md.) and Deutsche Sammlung von Mikroorganismen and Zellkulturen (DSMZ; Braunschweig, Germany) respectively.
(§6) Studies were performed using MLL-rearranged cell lines in vitro to evaluate the anti-proliferative effect of a combination of two agents together on cell growth. Initial proliferation studies were performed to determine the IC50 of a given compound in each cell line. The cell counts were measured by ATP quantitation using the Promega Cell Titer Glo kit and luminescence values corresponded to the amount of ATP in a given well.
(§7) Compounds were evaluated for synergy in the co-treatment phase by testing the compounds in a concentration range which was bracketed around their IC50 values. The compounds were plated to a 96 well plate in a matrix format (FIG. 3) which includes increasing concentrations of each drug in the combination in a constant ratio, in addition to the effect of each compound alone in the study. Cells were seeded and grown in the log-linear phase for 3 or 7 days in the co-treatment phase. Minimum inhibition (DMSO alone) controls were used in each plate to calculate fraction affected (Fa) of a test well. DMSO concentration was kept at 0.1% v/v.
(§8) The drug combination analysis was performed utilizing the Chou-Talalay method Synergy was determined using the software package Calcusyn by Biosoft. The combination index (CI) is a quantitative term used to describe the level of synergy or antagonism in a given test system. A combination index less than one indicates synergy, and a CI greater than one indicates antagonism. Further, strong synergism is achieved when the CI value falls below 0.3.
(§9) The HP-D300 digital dispenser (Tecan) was used to dispense compounds in a combinatorial matrix. […] Cell viability was measured via ATP content using CellTiter-Glo® (Promega).
(§10) Viability was determined using CellTiter-Glo® (Promega).
as §6, with “Proliferation studies” for “Studies”, “MOLM-13, MV4-11 and SKM-1” for “MLL-rearranged”, “cancer cell killing” for “anti-proliferative”, “IC50 values” for “IC50”, “correspond” for “corresponded”
(§11) These studies were performed to evaluate both the combinatorial effect of compounds on cell killing and the durability of the effect by washing out one of the agents.
(§12) Compounds evaluated for synergy in the co-treatment phase were tested in a range which was bracketed around the IC50's. The compounds were plated to a 96 well plate in a matrix format which includes increasing concentrations of each drug in the combination in a constant ratio, in addition to the effect of each compound alone in the study. Cells were seeded and grown in the log-linear phase for 3 or 7 days in the cotreatment phase. Maximum and minimum inhibition (DMSO alone) controls were used in each plate to calculate fraction affected (Fa) of a test well. DMSO concentration was kept at 0.1% v/v. The drug combination analysis was performed utilizing the Chou-Talalay method. Synergy was determined using the software package Calcusyn by Biosoft. The combination index (CI) is the term used to describe the level of synergy or antagonism in a given test system. A combination index less than one indicates synergy, and a CI greater than one indicates antagonism.
The drug combination analysis was performed using the Chou-Talalay method. Graphs representing values of combination index (CI) versus Fractional effect (Fa) known as Fa-CI plots were generated and synergy was evaluated. Drug synergy was statistically defined by CI values less than 1, antagonism by CI>1 and additive effect by CI equal to 1.

MOLM-13 (MLL-AF9) cells [3] = assay: as above; format: cell-based, human; conditions: MOLM-13 (MLL-AF9); 7 Day Cotreatment Model
Protocol: as §5, §6, §7, §8, §9, §10
Cell viability was measured via ATP content using CellTiter-Glo® (Promega).
as §6, with “Proliferation studies” for “Studies”, “MOLM-13, MV4-11 and SKM-1” for “MLL-rearranged”, “cancer cell killing” for “anti-proliferative”, “IC50 values” for “IC50”, “correspond” for “corresponded”
as §11, §12
(§13) The drug combination analysis was performed using the Chou-Talalay method. Graphs representing values of combination index (CI) versus Fractional effect (Fa) known as Fa-CI plots were generated and synergy was evaluated.

[4] = test system: SKM-1 (non-MLL-rearranged AML) cells; assay: as above; format: cell-based, human; conditions: SKM-1; Compound A2 concentrations greater than 1000 nM
Protocol: Graphs representing values of combination index (CI) versus Fractional effect (Fa) known as Fa-CI plots were generated and synergy was evaluated.
as §10
MV4-11 cells were maintained in IMDM supplemented with 10% fetal bovine serum. MOLM-13 and SKM-1 cells were maintained in Roswell Park Memorial Institute medium (RPMI) supplemented with 10% fetal bovine serum. They were cultured in flasks or plates in a humidified 5% CO2 atmosphere.
as §6, with “Proliferation studies” for “Studies”, “MOLM-13, MV4-11 and SKM-1” for “MLL-rearranged”, “cancer cell killing” for “anti-proliferative”, “IC50 values” for “IC50”, “correspond” for “corresponded”
as §12, §13

THP-1 (MLL-AF9) cells = assay: Example 7 retest: EPZ-5676 pre-treatment, second compound 72 h, Cell Titer Glo, growth inhibition; format: cell-based; design: GI100: unit not given here; conditions: NRAS G12D
Protocol: as §1, with “96-well plates.” for “384-well plates at 500 cell/well density.”, “treated” for “equilibrated in incubators for 24 hours before treatment with a second compound. Treated assay plates were incubated”, “Cell Titer Glo” for “ATPLite”
as §2, §3

[5] = test system: OCI-AML-4 (MLL-ENL) cells; assay: as above; format: cell-based; conditions: OCI-AML-4 (MLL-ENL); for Combination result with EPZ-5676, Retest: 300 nM EPZ-5676 pre-treatment vs DMSO
Protocol: as §4, §2
as §3, with “(T72).” for “(T72). A GI reading of 0% represents no growth inhibition—cells treated with test compound as compared to T72 vehicle signals were measured.”

ML-2 (MLL-AF6) cells = assay: as above; format: cell-based; design: GI100: unit not given here; conditions: ML-2 (MLL-AF6), KRAS A146T (het); for GI50 / GI100: second compound, 72 h
Protocol: as §4, §2
as §3, with “(T72).” for “(T72). A GI reading of 0% represents no growth inhibition—cells treated with test compound as compared to T72 vehicle signals were measured.”

RS4-11 (MLL-AF4) cells = assay: as above; format: cell-based; design: GI100: unit not given here; conditions: RS4-11 (MLL-AF4), Ras mutation status: None known, second compound, 72 h; for GI50: Homo sapiens
Protocol: as §4, §2
as §3, with “(T72).” for “(T72). A GI reading of 0% represents no growth inhibition—cells treated with test compound as compared to T72 vehicle signals were measured.”

SKM-1 (non-MLLr) cells = assay: as above; format: cell-based, human; design: GI100: unit not given here; conditions: SKM-1 (non-MLLr); for Combination result with EPZ-5676, Retest: 300 nM EPZ-5676 pre-treatment vs DMSO; for Result (combination with EPZ-5676) / GI50 / GI100: KRAS K117N (homo); for GI50 / GI100: second compound, 72 h
Protocol: as §4, §2
as §3, with “(T72).” for “(T72). A GI reading of 0% represents no growth inhibition—cells treated with test compound as compared to T72 vehicle signals were measured.”

[6] = NRAS Q61R (het), second compound, 72 h
[7] = Ras mutation status: None known

Row | SMILES | Combination result with EPZ-5676, Primary screen (MOLM-13 (MLL-AF9) cells [1]) | Combination result with EPZ-5676, Retest (MOLM-13 (MLL-AF9) cells [2]) | GI50 (THP-1 (MLL-AF9) cells) | Combination result with EPZ-5676, Retest [5] | Result (combination with EPZ-5676) ([5]; NRAS Q61R (het)) | GI50 [5, 6] | GI50 (ML-2 (MLL-AF6) cells) | GI100 (ML-2 (MLL-AF6) cells) | GI50 (RS4-11 (MLL-AF4) cells) | GI100 (RS4-11 (MLL-AF4) cells) | GI50 (MOLM-13 (MLL-AF9) cells [2]; [7]) | GI100 (MOLM-13 (MLL-AF9) cells [2]; [7]) | Combination result with EPZ-5676, Retest (SKM-1 (non-MLLr) cells) | Result (combination with EPZ-5676) (SKM-1 (non-MLLr) cells) | GI50 (SKM-1 (non-MLLr) cells) | GI100 (SKM-1 (non-MLLr) cells) | also measured
1 | Cn1c(Nc2ccc(C(F)(F)F)cc2)nc2cc(Oc3ccnc(-c4ncc(C(F)(F)F)[nH]4)c3)ccc21 [RAF265] | Synergy (considered synergistic if the GI100 (Growth inhibition 100) value of the second compound decreased by 2-fold or more when EPZ-5676 was added as compared to the DMSO control) |  |  |  |  |  |  |  |  |  |  |  |  |  |  |  | 
2 | CNC(=O)c1cc(Oc2ccc(NC(=O)Nc3ccc(Cl)c(C(F)(F)F)c3)cc2)ccn1 [Sorafenib] | Synergy (considered synergistic if the GI100 (Growth inhibition 100) value of the second compound decreased by 2-fold or more when EPZ-5676 was added as compared to the DMSO control) | Synergy (considered synergistic if the GI100 (Growth inhibition 100) value of the second compound decreased by 2-fold or more when EPZ-5676 was added as compared to the DMSO control) |  |  |  |  |  |  |  |  |  |  |  |  |  |  | 
3 | C[C@]12C=CC(=O)C=C1CC[C@@H]1[C@@H]2[C@@H](O)C[C@@]2(C)[C@H]1CC[C@]2(O)C(=O)CO [Prednisolone] |  |  |  |  |  |  |  |  |  |  |  |  |  |  |  |  | Combination effect with Compound A2 (Table 4) (MV4-11 (MLL-AF4) cells): antagonism; Combination effect with Compound A2 (Table 4) (MOLM-13 (MLL-AF9) cells [3]): antagonism; Antiproliferative activity in presence of Compound A2 [4]: enhanced antiproliferative activity
4 | Cn1nccc1Nc1nccc(-c2ccn([C@H](CO)c3ccc(Cl)c(F)c3)c(=O)c2)n1 [GDC0994] |  |  | 2850 nM | Synergy (considered synergistic if the GI100 (Growth inhibition 100) value of the second compound decreased by 2-fold or more when EPZ-5676 was added as compared to the DMSO control) | Synergy (considered synergistic if the GI100 (Growth inhibition 100) value of the second compound decreased by 2-fold or more when EPZ-5676 was added as compared to the DMSO control) | 904 nM | 590 nM | 2.55 | 1300 nM | 2.505 | 3080 nM | 4.26 | Synergy (considered synergistic if the GI100 (Growth inhibition 100) value of the second compound decreased by 2-fold or more when EPZ-5676 was added as compared to the DMSO control) | Synergy (considered synergistic if the GI100 (Growth inhibition 100) value of the second compound decreased by 2-fold or more when EPZ-5676 was added as compared to the DMSO control) | 270 nM | 1.84 | GI100 (THP-1 (MLL-AF9) cells): >10; GI100 [5, 6]: 3.068
5 | CC(C)Nc1cc(-c2c[nH]c(C(=O)N[C@H](CO)c3cccc(Cl)c3)c2)c(Cl)cn1 [Ulixertinib] |  | Synergy (considered synergistic if the GI100 (Growth inhibition 100) value of the second compound decreased by 2-fold or more when EPZ-5676 was added as compared to the DMSO control) | 810 nM | Synergy (considered synergistic if the GI100 (Growth inhibition 100) value of the second compound decreased by 2-fold or more when EPZ-5676 was added as compared to the DMSO control) | Synergy (considered synergistic if the GI100 (Growth inhibition 100) value of the second compound decreased by 2-fold or more when EPZ-5676 was added as compared to the DMSO control) | 2100 nM | 630 nM | 2.711 | > 10000 nM | >10 | 1670 nM | 3.96 | Synergy (considered synergistic if the GI100 (Growth inhibition 100) value of the second compound decreased by 2-fold or more when EPZ-5676 was added as compared to the DMSO control) | Synergy (considered synergistic if the GI100 (Growth inhibition 100) value of the second compound decreased by 2-fold or more when EPZ-5676 was added as compared to the DMSO control) | 440 nM | 1.500 | Result (combination with EPZ-5676) (ML-2 (MLL-AF6) cells): Synergy (considered synergistic if the GI100 (Growth inhibition 100) value of the second compound decreased by 2-fold or more when EPZ-5676 was added as compared to the DMSO control); Result (combination with EPZ-5676) (MOLM-13 (MLL-AF9) cells [2]; [7]): Synergy (considered synergistic if the GI100 (Growth inhibition 100) value of the second compound decreased by 2-fold or more when EPZ-5676 was added as compared to the DMSO control)
